In this assay the target is KsgA (Thermus thermophilus, UniProt Q5SM60). As to the kind of experiment: X-ray crystal structure. The following applies: cofactor-binding site; co-crystallised with 4 mM adenosine and 4 mM AdoMet, 50 °C for 10 min; crystal form KsgA2.

SMILES strings stand for the structures.

Sequence of KsgA (Q5SM60 whole entry): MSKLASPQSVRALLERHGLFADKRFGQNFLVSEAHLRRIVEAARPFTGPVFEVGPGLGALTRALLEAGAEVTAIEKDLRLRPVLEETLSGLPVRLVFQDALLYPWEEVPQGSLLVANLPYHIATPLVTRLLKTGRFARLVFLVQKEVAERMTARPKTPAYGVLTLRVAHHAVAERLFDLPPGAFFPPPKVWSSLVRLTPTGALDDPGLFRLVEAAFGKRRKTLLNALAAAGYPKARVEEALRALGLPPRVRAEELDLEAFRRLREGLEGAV

Turning to `Nc1ncnc2c1ncn2[C@@H]1O[C@H](CO)[C@@H](O)[C@H]1O` [adenosine], the X-ray crystal structure result is reported as “these crystals were found to have adenosine in the cofactor-binding site”.

For the origin of these results see article PMC2679894 (Journal of molecular biology, 2009).
